The values that follow come from patent US6642226B2, “Substituted phenyl-piperidine methanone compounds” (Hoffman-La Roche Inc., priority 2001, dated 2003).

This assay has as its target T1, human NK1 receptor (Homo sapiens, UniProt P25103).
T1 construct: expressed in transfected cells; host or cells: CHO cells, Semliki virus expression system; membrane suspension
As to the kind of experiment: NK1 receptor binding, [3H]substance P displacement. To be noted: for Ki: human NK1 receptors in CHO cells, [3H]substance P 0.6 nM, read-out: pKi (affinity to the NK-1 receptor) (converted); for relative activity of enantiomer in the test for NK-1 binding: enantiomer fraction from Chiralpak AD separation of the racemate. The method, then:
The affinity of test compounds for the NK1 receptor was evaluated at human NK1 receptors in CHO cells infected with the human NK1 receptor (using the Semliki virus expression system) and radiolabelled with [^3H]substance P (final concentration 0.6 nM). Binding assays were performed in HEPES buffer (50 mM, pH 7.4) containing BSA (0.04%) leupeptin (8 μg/ml), MnCl2 (3 mM) and phosphoramidon (2 μM). Binding assays consisted of 250 μl of membrane suspension (1.25×10^5 cells/assay tube), […] of buffer of displacing agent and 125 μl of [^3H]substance P. Displacement curves were determined with at least seven concentrations of the compound. The assay tubes were incubated for 60 min at room temperature after which time the tube contents were rapidly filtered under vacuum through GF/C filters presoaked for 60 min with PEI (0.3%) with 2×2 ml washes of HEPES buffer (50 mM, pH 7.4). The radioactivity retained on the filters was measured by scintillation counting. All assays were performed in triplicate in at least 2 separate experiments.

T1 sequence (P25103 whole entry): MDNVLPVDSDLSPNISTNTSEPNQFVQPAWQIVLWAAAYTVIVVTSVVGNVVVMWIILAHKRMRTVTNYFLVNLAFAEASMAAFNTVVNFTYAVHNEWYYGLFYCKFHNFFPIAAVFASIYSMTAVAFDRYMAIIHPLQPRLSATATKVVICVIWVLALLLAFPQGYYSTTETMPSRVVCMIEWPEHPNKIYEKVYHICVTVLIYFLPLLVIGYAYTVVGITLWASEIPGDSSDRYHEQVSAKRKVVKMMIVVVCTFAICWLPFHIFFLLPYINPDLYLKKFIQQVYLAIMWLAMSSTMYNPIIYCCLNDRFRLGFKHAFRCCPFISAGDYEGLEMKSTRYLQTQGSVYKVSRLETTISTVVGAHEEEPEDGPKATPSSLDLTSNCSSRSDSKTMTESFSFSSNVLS

For the compound `O=C(NC1CCCN(C2CCN(C(=O)c3cc(C(F)(F)F)cc(C(F)(F)F)c3)CC2c2ccc(F)cc2)C1)C1CC1` (mixture of isomers) [Example 77, (3RS,3′RS,4SR)- and (3RS,3′SR,4SR)-Cyclopropanecarboxylic acid [1′-(3,5-bis-trifluoromethyl-benzoyl)-3′-(4-fluoro-phenyl)-[1,4′]bipiperidinyl-3-yl]-amide], the Ki was 2.95 nM.
With `O=C(Cc1ccccc1)NC1CCCN(C2CCN(C(=O)c3cc(C(F)(F)F)cc(C(F)(F)F)c3)CC2c2ccc(F)cc2)C1` (mixture of isomers) [Example 79, (3RS,3′RS,4SR)- and (3RS,3′SR,4SR)-N-[1′-(3,5-Bis-trifluoromethyl-benzoyl)-3′-(4-fluoro-phenyl)-[1,4′]bipiperidinyl-3-yl]-2-phenyl-acetamide], the Ki is 2.04 nM.
With `NC1CCN(C2CCN(C(=O)c3cc(C(F)(F)F)cc(C(F)(F)F)c3)CC2c2ccc(F)cc2)C1` (mixture of isomers) [Example 118, (3RS,3′RS,4SR)- and (3RS,3′SR,4SR)-[4-(3-Amino-pyrrolidin-1-yl)-3-(4-fluoro-phenyl)-piperidin-1-yl]-(3,5-bis-trifluoromethyl-phenyl)-methanone], the Ki is 1.78 nM.
In the case of `O=C(c1cc(C(F)(F)F)cc(C(F)(F)F)c1)N1CCC(N2CCC(OCC3CC3)CC2)C(c2ccc(Cl)cc2)C1` (racemic) [Example 66, Rac-cis-(3,5-Bis-trifluoromethyl-phenyl)-[3′-(4-chloro-phenyl)-4-cyclopropylmethoxy-[1,4′]bipiperidinyl-1′-yl]-methanone], the Ki is 2.75 nM.
As for `O=C(c1cc(C(F)(F)F)cc(C(F)(F)F)c1)N1CC[C@H](N2CCNCC2)[C@H](c2ccc(F)cc2)C1` (racemic) [Example 82, Rac-cis-(3,5-Bis-trifluoromethyl-phenyl)-[3-(4-fluoro-phenyl)-4-piperazin-1-yl-piperidin-1-yl]-methanone], the Ki was 2.09 nM.
Take `O=C(c1cc(C(F)(F)F)cc(C(F)(F)F)c1)N1CC[C@H](N2CCN(CC3CC3)CC2)[C@H](c2ccc(F)cc2)C1` (racemic) [Example 88, Rac-cis-(3,5-Bis-trifluoromethyl-phenyl)-[4-(4-cyclopropylmethyl-piperazin-1-yl)-3-(4-fluoro-phenyl)-piperidin-1-yl]-methanone]: the Ki was 3.16 nM.
Same read-out and setting: then `O=C(c1cc(C(F)(F)F)cc(C(F)(F)F)c1)N1CC[C@H](N2CCN(C(=O)C(F)(F)F)CC2)[C@H](c2ccc(Cl)cc2)C1` (racemic) [Example 106, Rac-cis-1-{4-[1-(3,5-Bis-trifluoromethyl-benzoyl)-3-(4-chloro-phenyl)-piperidin-4-yl]-piperazin-1-yl}-2,2,2-trifluoro-ethanone], with 3.16 nM; and `CN(C)C1CCN(C2CCN(C(=O)c3cc(C(F)(F)F)cc(C(F)(F)F)c3)CC2c2ccc(Cl)cc2)CC1` (racemic) [Example 107, Rac-cis-(3,5-bis-trifluoromethyl-phenyl)-[3′-(4-chloro-phenyl)-4-dimethylamino-[1,4′]bipiperidinyl-1′-yl]-methanone], with 0.631 nM.
On the same count and under the same terms, then `O=C(c1cc(C(F)(F)F)cc(C(F)(F)F)c1)N1CCC(N2CCC(N3CCOCC3)CC2)C(c2ccc(Cl)cc2)C1` (racemic) [Example 109, Rac-cis-(3,5-Bis-trifluoromethyl-phenyl)-[3′-(4-chloro-phenyl)-4-morpholin-4-yl-[1,4′]bipiperidinyl-1′-yl]-methanone], with 1.62 nM; and `O=C(c1cc(C(F)(F)F)cc(C(F)(F)F)c1)N1CCC(N2CCC(NC3CC3)CC2)C(c2ccc(Cl)cc2)C1` (racemic) [Example 112, Rac-cis-(3,5-Bis-trifluoromethyl-phenyl)-[3′-(4-chloro-phenyl)-4-cydopropylamino-[1,4′]bipiperidinyl-1′-yl]-methanone], with 0.794 nM.
As for `O=C(c1cc(C(F)(F)F)cc(C(F)(F)F)c1)N1CC[C@@H](N2CCN(C(=O)C3CC3)CC2)[C@@H](c2ccccc2)C1` (single isomer, unassigned) [Example 65, (+)-(3,5-Bis-trifluoromethyl-phenyl)-[4-(4-cyclopropanecarbonyl-piperazin-1-yl)-3-phenyl-piperidin-1-yl]-methanone], the “relative activity of enantiomer in the test for NK-1 binding” value (from here on “relative activity of enantiomer”) was “more active enantiomer” and the Ki is 1.41 nM.
For the compound `O=C(c1cc(C(F)(F)F)cc(C(F)(F)F)c1)N1CC[C@@H](N2CCOCC2)[C@@H](c2ccc(Cl)cc2)C1` (single isomer, unassigned) [Example 70, (−)-(3,5-Bis-trifluoromethyl-phenyl)-[3-(4-chloro-phenyl)-4-morpholin-4-yl-piperidin-1-yl]-methanone], the “relative activity of enantiomer” value is “more active enantiomer” and the Ki was 2.57 nM.
Regarding `O=C(c1cc(C(F)(F)F)cc(C(F)(F)F)c1)N1CC[C@@H](N2CCCC2)[C@@H](c2ccc(Cl)cc2)C1` (single isomer, unassigned) [Example 80, (−)-(3,5-Bis-trifluoromethyl-phenyl)-[3-(4-chloro-phenyl)-4-pyrrolidin-1-yl-piperidin-1-yl]-methanone], the “relative activity of enantiomer” value is on record as “more active enantiomer” and the Ki is 3.16 nM.
As to `CN1CCN([C@@H]2CCN(C(=O)c3cc(C(F)(F)F)cc(C(F)(F)F)c3)C[C@@H]2c2ccc(F)cc2)CC1` (single isomer, unassigned) [Example 90, (−)-(3,5-Bis-trifluoromethyl-phenyl)-[3-(4-fluoro-phenyl)-4-(4-methyl-piperazin-1-yl)-piperidin-1-yl]-methanone], the “relative activity of enantiomer” value is listed as “more active enantiomer” and the Ki is 2.45 nM.
Consider `CN1CCN([C@@H]2CCN(C(=O)c3cc(C(F)(F)F)cc(C(F)(F)F)c3)C[C@@H]2c2ccccc2)CC1` (single isomer, unassigned) [Example 92, (−)-(3,5-Bis-trifluoromethyl-phenyl)-[3-phenyl-4-(4-methyl-piperazin-1-yl)-piperidin-1-yl]-methanone], for which the “relative activity of enantiomer” value was “more active enantiomer” and the Ki is 2.69 nM.
As for `O=C(c1cc(C(F)(F)F)cc(C(F)(F)F)c1)N1CC[C@@H](N2CCN(C(=O)C(F)(F)F)CC2)[C@@H](c2ccc(Cl)cc2)C1` (single isomer, unassigned) [Example 108, (−)-1-{4-[1-(3,5-Bis-trifluoromethyl-benzoyl)-3-(4-chloro-phenyl)-piperidin-4-yl]-piperazin-1-yl}-2,2,2-trifluoro-ethanone], the “relative activity of enantiomer” value is recorded as “more active enantiomer” and the Ki is 1.29 nM.
Consider `O=C(c1cc(C(F)(F)F)cc(C(F)(F)F)c1)N1CC[C@@H](N2CCN(C3CC3)CC2)[C@@H](c2ccccc2)C1` (single isomer, unassigned) [Example 119, (−)-(3,5-Bis-trifluoromethyl-phenyl)-[4-(4-cyclopropyl-piperazin-1-yl)-3-phenyl-piperidin-1-yl]-methanone], for which the Ki was 1 nM.
Consider `O=C(c1cc(C(F)(F)F)cc(C(F)(F)F)c1)N1CCC(N2CCN(C(=O)C3CC3)CC2)C(c2ccc(F)cc2)C1` (single isomer, unassigned; (+)) [Example 85, (+)-(3,5-Bis-trifluoromethyl-phenyl)-[4-(4-cyclopropanecarbonyl-piperazin-1-yl)-3-(4-fluoro-phenyl)-piperidin-1-yl]-methanone], for which the “relative activity of enantiomer” value is “more active enantiomer”.
Consider `CN1CCN(C2CCN(C(=O)c3cc(Cl)cc(Cl)c3)CC2c2ccccc2)CC1` (single isomer, unassigned; (+)) [Example 127, (+)-(3,5-Dichloro-phenyl)-[4-(4-methyl-piperazin-1-yl)-3-phenyl-piperidin-1-yl]-methanone], for which the “relative activity of enantiomer” value was “more active enantiomer”.
On to `Cc1ccc(C2CN(C(=O)c3cc(C(F)(F)F)cc(C(F)(F)F)c3)CCC2N2CCN(C(=O)C(F)(F)F)CC2)cc1` (single isomer, unassigned; (-)) [Example 100, (−)-{4-[1-(3,5-Bis-trifluoromethyl-benzoyl)-3-p-tolyl-piperidin-4-yl]-piperazin-1-yl}-2,2,2-trifluoro-ethanone], for which the “relative activity of enantiomer” value is “more active enantiomer”.
Take `CC(C)(C)OC(=O)N1CCN(C2CCN(C(=O)c3cc(C(F)(F)F)cc(C(F)(F)F)c3)CC2c2ccccc2)CC1` (single isomer, unassigned; (-)) [Example 101, (−)-4-[1-(3,5-Bis-trifluoromethyl-benzoyl)-3-phenyl-piperidin-4-yl]-piperazine-1-carboxylic Acid Tert-Butyl Ester]: the “relative activity of enantiomer” value is “more active enantiomer”.
Regarding `Cc1ccc(C2CN(C(=O)c3cc(C(F)(F)F)cc(C(F)(F)F)c3)CCC2N2CCN(C(=O)C3CC3)CC2)cc1` (single isomer, unassigned; (-)) [Example 103, (−)-(3,5-Bis-trifluoromethyl-phenyl)-[4-(4-cyclopropanecarbonyl-piperazin-1-yl)-3-p-tolyl-piperidin-1-yl]-methanone], the Ki is 2.14 nM.
